pEC50: −log10 of the molar value. Activity calls are given as the source filed them. The calls are words filed in the database; no cut-off is given here. Where a SMILES comes first, the peptide text is derived from it.
Legend:
[1] = molecular target: T1, Glucagon-like peptide 1 receptor (Homo sapiens, UniProt P43220); assay: Agonist activity at human GLP-1R expressed in HEK293 cells assessed as stimulation of cAMP accumulation incubated for 20 mins in presence of 0% HSA; format: functional, cell-based
[2] = molecular target: T1, Glucagon-like peptide 1 receptor; assay: Agonist activity at human GLP-1R expressed in HEK293 cells assessed as stimulation of cAMP accumulation incubated for 20 mins in presence of 4.4% HSA; format: functional, cell-based
[3] = molecular target: T1, Glucagon-like peptide 1 receptor; assay: Ratio of EC50 for agonist activity at human GLP-1R expressed in HEK293 cells in presence of 4.4% HSA to EC50 for agonist activity at human GLP-1R expressed in HEK293 cells in presence of 0% HSA; format: cell-based
serum albumin = serum albumin (Homo sapiens, UniProt P02768); assay: Binding affinity to human serum albumin in PBS pH 7.4 at 100 ug/mL incubated for 2 hrs by LC-MS/MS analysis relative to control; format: ADME; conditions: at 100 µg/mL, read-out: PB (converted)
Mus musculus [4] = assay: Hypoglycemic activity in non-fasted db/db mouse assessed as decrease in blood glucose concentration at 25 nmol/kg, sc by OGTT method; format: functional, organism-based
Mus musculus [5] = assay: Reduction in body weight in C57BL/6 mouse model of diet induced obesity at 25 nmol/kg, sc BID for 1 week relative to control; format: functional; parameters: scale not given: the % may be the effect or the level left; conditions: time 1 weeks
Mus musculus [6] = assay: Reduction in food intake in C57BL/6 mouse model of diet induced obesity at 25 nmol/kg, sc BID for 1 week relative to control; format: functional, organism-based; conditions: time 1.0 weeks
Mus musculus [7] = assay: Reduction in fasted hyperglycemia in C57BL/6 mouse model of diet induced obesity at 25 nmol/kg, sc BID for 1 week relative to control; format: functional, organism-based; conditions: time 1.0 weeks

T1 sequence (P43220 whole entry): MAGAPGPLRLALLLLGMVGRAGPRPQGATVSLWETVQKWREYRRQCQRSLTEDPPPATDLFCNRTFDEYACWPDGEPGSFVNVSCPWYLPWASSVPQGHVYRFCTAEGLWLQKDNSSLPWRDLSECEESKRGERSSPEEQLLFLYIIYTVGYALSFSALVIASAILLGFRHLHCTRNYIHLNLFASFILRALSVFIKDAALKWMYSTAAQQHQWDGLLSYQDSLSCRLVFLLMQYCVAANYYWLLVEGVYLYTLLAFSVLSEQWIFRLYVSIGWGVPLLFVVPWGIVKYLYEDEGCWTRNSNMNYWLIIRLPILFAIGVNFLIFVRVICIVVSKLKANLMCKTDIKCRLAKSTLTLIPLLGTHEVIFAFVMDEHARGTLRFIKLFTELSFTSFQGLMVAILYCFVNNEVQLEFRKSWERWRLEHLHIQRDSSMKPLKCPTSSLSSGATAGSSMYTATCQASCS
serum albumin, sequence (P02768 whole entry): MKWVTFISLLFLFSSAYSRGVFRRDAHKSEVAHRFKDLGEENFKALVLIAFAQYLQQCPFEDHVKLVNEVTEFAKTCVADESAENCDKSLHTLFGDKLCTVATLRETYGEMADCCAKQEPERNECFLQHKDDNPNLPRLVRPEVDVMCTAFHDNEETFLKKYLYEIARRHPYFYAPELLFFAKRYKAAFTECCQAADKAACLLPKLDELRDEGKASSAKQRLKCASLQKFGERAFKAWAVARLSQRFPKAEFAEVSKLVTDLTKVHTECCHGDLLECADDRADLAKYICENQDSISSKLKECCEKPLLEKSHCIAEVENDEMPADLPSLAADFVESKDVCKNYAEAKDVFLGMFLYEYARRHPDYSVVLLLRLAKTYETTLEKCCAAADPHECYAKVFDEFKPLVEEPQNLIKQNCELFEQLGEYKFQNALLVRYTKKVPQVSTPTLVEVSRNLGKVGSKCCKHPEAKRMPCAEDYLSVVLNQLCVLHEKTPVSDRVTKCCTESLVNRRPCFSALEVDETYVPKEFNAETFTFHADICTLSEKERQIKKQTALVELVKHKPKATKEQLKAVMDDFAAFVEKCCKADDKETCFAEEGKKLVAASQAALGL

Compound `CCCCCCCCCCCCCCCC(=O)NCCCCCCNC(=O)C1CCCCNC(=O)CCN2C(=O)CC(SC[C@H](NC(=O)[C@H](CCCCN)NC(=O)[C@H](C)NC(=O)[C@H](C)NC(=O)[C@H](CCC(=O)O)NC(=O)[C@H](CCC(=O)O)NC(=O)[C@H](CCC(=O)O)NC(=O)[C@H](CC(C)C)NC(=O)[C@H](Cc3ccc(O)cc3)NC(=O)[C@H](CCC(=O)O)NC(=O)[C@@H](NC(=O)[C@@H](NC(=O)[C@H](CC(=O)O)NC(=O)[C@H](CC(N)=O)NC(=O)[C@@H](NC(=O)[C@H](Cc3ccc(O)cc3)NC(=O)[C@@H](NC(=O)CNC(=O)[C@H](CCC(=O)O)NC(=O)C(C)(C)NC(=O)[C@@H](N)Cc3c[nH]cn3)[C@@H](C)O)[C@@H](C)O)C(C)C)[C@@H](C)O)C(=O)N[C@@H](Cc3ccccc3)C(=O)N[C@@H]([C@@H](C)CC)C(=O)N[C@@H](CCC(=O)O)C(=O)N[C@@H](Cc3c[nH]c4ccccc34)C(=O)N[C@@H](CC(C)C)C(=O)N[C@@H]([C@@H](C)CC)C(=O)N[C@H](C(=O)NCC(=O)N[C@@H](CCCCN)C(=O)N3CCC[C@H]3C(=O)N[C@@H](CO)C(=O)N[C@@H](CO)C(=O)NCC(=O)N[C@@H](C)C(=O)N3CCC[C@H]3C(=O)N3CCC[C@H]3C(=O)N3CCC[C@H]3C(=O)N[C@@H](CO)C(N)=O)CSC3CC(=O)N(CCC(=O)N1)C3=O)C2=O` (stereo partly drawn) (HELM PEPTIDE1{H.[Aib].E.G.T.Y.T.N.D.V.T.E.Y.L.E.E.E.A.A.K.C.F.I.E.W.L.I.C.G.K.P.S.S.G.A.P.P.P.S.[am]}|CHEM1{[CCCCCCCCCCCCCCCC(=O)NCCCCCCNC(=O)C(CCCCNC(=O)CCN1C(=O)CC([*:1])C1=O)NC(=O)CCN1C(=O)CC([*:2])C1=O]}$PEPTIDE1,CHEM1,21:R3-1:R1|PEPTIDE1,CHEM1,28:R3-1:R2$$$V2.0) has a pEC50 [1] of 10.27, a pEC50 [2] of 8.89 and a Ratio EC50 [3] of 24.1. The fraction unbound at 2 h, 100 ug/mL (serum albumin) was 0.15, the Activity (Mus musculus [4]) was “Active” and the Activity (Mus musculus [5]) was 15.2%. The Activity (Mus musculus [6]) was “Active” and the Activity (Mus musculus [7]) was “Active”.

From ChEMBL document CHEMBL4699602, “Stapled and Xenopus Glucagon-Like Peptide 1 (GLP-1)-Based Dual GLP-1/Gastrin Receptor Agonists with Improved Metabolic Benefits in Rodent Models of Obesity and Diabetes” (J Med Chem, 2020)
